# Reference: BindingDB's records for patent US11845767 (Rijksuniversiteit Groningen, 2023)
# Columns and labels:
# Arginase-1 = target: T1, Arginase-1 (Homo sapiens, UniProt P05089); test: Inhibition of Arginase
# T1 sequence (P05089 whole entry): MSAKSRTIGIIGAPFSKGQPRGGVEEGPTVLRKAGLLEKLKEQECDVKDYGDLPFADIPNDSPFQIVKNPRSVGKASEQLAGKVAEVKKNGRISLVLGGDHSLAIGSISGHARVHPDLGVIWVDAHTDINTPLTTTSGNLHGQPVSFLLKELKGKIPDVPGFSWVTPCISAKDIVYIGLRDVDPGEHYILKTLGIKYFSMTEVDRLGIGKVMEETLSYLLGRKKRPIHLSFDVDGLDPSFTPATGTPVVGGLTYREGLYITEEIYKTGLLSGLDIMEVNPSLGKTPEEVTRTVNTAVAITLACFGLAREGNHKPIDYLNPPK
# Description: (§1) Inhibition of arginase I (ARG I) and arginase II (ARGG II) novel compounds is followed spectrophotometrically at 530 nm. The compound to be tested is dissolved in H2O and prepared 100 mM stock solution. 10 μl of the stock solution is diluted in 90 μl of the assay buffer that comprises 0.1M sodium phosphate buffer containing 130 mM NaCl, pH 7.4, to which is added ovalbumin (OVA) at a concentration of 1 mg/mi. Solutions of arginase I and II are prepared in 100 mM sodium phosphate buffer, pH 7.4 containing 1 mg/ml OVA to give an arginase stock solution at a final concentration of 100 ng/ml. To each well of a 96-well microtiter plate is add 40 μl of enzyme, 10 μl of an inventive compound and 10 μl of enzyme substrate (L-arginine+manganese sulfate). For wells that are used as positive controls, only the enzyme and its substrate are added, while wells used as negative controls contain only manganese sulfate. After incubating the microtiter plate at 37° C. for 60 minutes, 150 μl of a urea reagent obtained by combining equal proportions (1:1) of reagents A and B is added to each well of the microtiter plate to stop the reaction. The urea reagent is made just before use by combining Reagent A (10 mM o-phthaldialdehyde, and 0.4% polyoxyethylene (23) lauryl ether (w/v) in 1.8 M sulfuric acid) with Reagent B (1.3 mM […], 0.4% polyoxyethylene (23) lauryl ether (w/v), 130 mM boric acid in 3.6 M sulfuric acid). After quenching the reaction mixture, the microtiter plate is allowed to stand for an additional 10 minutes at room temperature to allow color development. T
# [1] = target: T2, Arginase-2, mitochondrial (Homo sapiens, UniProt P78540); test: Inhibition of Arginase
# T2 sequence (P78540 whole entry): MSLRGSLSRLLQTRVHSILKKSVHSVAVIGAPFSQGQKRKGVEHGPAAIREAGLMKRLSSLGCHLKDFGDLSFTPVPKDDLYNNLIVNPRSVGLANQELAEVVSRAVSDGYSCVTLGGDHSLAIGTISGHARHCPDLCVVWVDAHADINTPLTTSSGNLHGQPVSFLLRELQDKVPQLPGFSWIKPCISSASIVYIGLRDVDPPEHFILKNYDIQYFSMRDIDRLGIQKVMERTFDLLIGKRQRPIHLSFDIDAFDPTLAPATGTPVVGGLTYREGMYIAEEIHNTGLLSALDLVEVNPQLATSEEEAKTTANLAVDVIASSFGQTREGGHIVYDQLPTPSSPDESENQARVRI
# Description: as §1
structure (smiles),measurement,setting,value
"NC(CCCCB(O)O)c1nnnn1CCc1ccc(Br)cc1 (stereo not given) [US11845767, Example 313]",IC50,Arginase-1,< 101 nM
"CCCCNC(=O)Cn1nnnc1C(N)CCCCB(O)O (stereo not given) [US11845767, Example 271]",IC50,Arginase-1,14 nM
"NC(CCCCB(O)O)c1nnnn1CC(=O)NCc1ccc(Cl)cc1F (stereo not given) [US11845767, Example 318]",IC50,Arginase-1,15.5 nM
same,IC50,[1],18.6 nM
"NC(CCCCB(O)O)c1nnnn1CC(=O)N1CCOCC1 (stereo not given) [US11845767, Example 274]",IC50,Arginase-1,340 nM
